In US20070249639A1, “Use of 9H-Purine-2,6-Diamine Derivatives in the Treatment of Proliferative Diseases and Novel 9H-Purine-2,6-Diamine Derivatives” (priority 2004, published 2007):

Columns and labels:
Format in all cases: biochemical
[1] = target: HER2 (Homo sapiens, UniProt P04626); experiment: Kinase panel inhibition; details: @ 10 μM inhibitor; read-out: HER2 kinase inh.
Experimental: (§1) Percentage Inhibition of the Kinase at 10 μM Concentration of the Inhibitor
(§2) Paul W. Manley, Pascal Furet, Guido Bold, Josef Brüggen, Jürgen Mestan, Thomas Meyer, Christian R. Schnell, and Jeanette Wood; Anthranilic Acid Amides: A Novel Class of Antiangiogenic VEGF Receptor Kinase Inhibitors J. Med. Chem. 2002, 45, 5687-5693. Wan, Yongqin; Hur, Wooyoung; Cho, Charles Y.; Liu, Yi; Adrian, Francisco J.; Lozach, Olivier; Bach, Stephane; Mayer, Thomas; Fabbro, Doriano; Meijer, Laurent; Gray, Nathanael S; Synthesis and Target Identification of Hymenialdisine Analogs Chemistry & Biology 2004, 11(2), 247-259.

[2] = target: T1, PDK1 (Homo sapiens, UniProt O15530); experiment: Kinase panel inhibition; details: @ 10 μM inhibitor; read-out: PDK1 kinase inh.
T1 sequence (O15530 1-556): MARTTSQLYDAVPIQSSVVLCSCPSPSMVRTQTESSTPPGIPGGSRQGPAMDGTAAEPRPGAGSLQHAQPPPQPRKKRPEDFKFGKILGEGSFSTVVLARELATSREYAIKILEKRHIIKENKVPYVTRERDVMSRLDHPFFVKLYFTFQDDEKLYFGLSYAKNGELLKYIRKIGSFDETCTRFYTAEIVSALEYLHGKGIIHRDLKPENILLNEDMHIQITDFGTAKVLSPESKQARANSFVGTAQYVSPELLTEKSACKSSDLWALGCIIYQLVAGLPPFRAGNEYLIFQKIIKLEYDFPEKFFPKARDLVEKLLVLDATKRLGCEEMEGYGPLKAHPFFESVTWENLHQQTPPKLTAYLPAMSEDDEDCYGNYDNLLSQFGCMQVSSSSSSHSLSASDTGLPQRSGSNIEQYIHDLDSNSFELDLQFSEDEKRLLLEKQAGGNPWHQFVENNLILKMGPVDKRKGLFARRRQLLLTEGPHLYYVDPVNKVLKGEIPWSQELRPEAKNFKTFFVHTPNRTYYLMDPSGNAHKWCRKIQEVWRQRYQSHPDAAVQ
Experimental: as §1, §2

[3] = target: Flt-1 (Homo sapiens, UniProt P17948); experiment: Kinase panel inhibition; details: @ 10 μM inhibitor; read-out: Flt-1 kinase inh.
Experimental: as §1, §2

[4] = target: Flt-4 (Homo sapiens, UniProt P35916); experiment: Kinase panel inhibition; details: @ 10 μM inhibitor; read-out: Flt-4 kinase inh.
Chain of Flt-4 (P35916 25-1363, species assumed): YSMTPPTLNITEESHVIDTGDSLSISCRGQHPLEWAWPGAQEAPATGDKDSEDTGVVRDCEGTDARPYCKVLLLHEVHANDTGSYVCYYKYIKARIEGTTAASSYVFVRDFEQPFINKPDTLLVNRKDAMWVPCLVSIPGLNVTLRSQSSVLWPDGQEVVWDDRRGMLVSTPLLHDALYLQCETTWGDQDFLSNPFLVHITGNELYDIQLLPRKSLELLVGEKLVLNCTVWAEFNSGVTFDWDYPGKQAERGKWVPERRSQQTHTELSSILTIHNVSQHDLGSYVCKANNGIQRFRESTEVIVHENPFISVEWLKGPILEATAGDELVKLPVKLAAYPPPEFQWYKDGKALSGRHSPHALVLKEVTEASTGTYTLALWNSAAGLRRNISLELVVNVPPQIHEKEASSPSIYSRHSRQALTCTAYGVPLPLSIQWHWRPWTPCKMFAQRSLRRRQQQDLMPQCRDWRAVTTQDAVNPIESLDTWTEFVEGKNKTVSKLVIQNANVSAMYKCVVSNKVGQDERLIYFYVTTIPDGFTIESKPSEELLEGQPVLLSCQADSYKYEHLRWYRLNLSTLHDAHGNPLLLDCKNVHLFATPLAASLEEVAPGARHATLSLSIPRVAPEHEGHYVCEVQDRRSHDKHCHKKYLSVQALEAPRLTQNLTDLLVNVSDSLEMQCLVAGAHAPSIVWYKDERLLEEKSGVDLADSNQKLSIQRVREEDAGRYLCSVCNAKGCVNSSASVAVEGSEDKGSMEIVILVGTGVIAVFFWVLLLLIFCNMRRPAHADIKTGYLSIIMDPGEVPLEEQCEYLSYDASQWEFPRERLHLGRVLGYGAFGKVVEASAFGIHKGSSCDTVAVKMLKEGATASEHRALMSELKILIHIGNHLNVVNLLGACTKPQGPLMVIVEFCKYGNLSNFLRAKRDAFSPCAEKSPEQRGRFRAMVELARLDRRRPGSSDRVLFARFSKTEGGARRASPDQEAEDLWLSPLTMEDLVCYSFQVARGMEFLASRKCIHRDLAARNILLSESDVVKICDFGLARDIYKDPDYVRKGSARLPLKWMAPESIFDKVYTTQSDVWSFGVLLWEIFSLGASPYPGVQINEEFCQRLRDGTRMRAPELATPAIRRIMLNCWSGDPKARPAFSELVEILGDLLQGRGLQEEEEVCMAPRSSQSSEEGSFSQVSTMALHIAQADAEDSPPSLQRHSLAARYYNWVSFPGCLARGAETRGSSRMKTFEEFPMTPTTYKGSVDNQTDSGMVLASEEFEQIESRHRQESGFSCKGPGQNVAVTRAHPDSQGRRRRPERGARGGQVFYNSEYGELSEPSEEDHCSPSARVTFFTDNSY
Experimental: as §1, §2

[5] = target: KDR (Homo sapiens, UniProt P35968); experiment: Kinase panel inhibition; details: @ 10 μM inhibitor; read-out: KDR kinase inh.
Experimental: as §1, §2

[6] = target: Raf-1 (Homo sapiens, UniProt P04049); experiment: Kinase panel inhibition; details: @ 10 μM inhibitor; read-out: Raf-1 kinase inh.
Chain of Raf-1 (P04049 whole entry, species assumed): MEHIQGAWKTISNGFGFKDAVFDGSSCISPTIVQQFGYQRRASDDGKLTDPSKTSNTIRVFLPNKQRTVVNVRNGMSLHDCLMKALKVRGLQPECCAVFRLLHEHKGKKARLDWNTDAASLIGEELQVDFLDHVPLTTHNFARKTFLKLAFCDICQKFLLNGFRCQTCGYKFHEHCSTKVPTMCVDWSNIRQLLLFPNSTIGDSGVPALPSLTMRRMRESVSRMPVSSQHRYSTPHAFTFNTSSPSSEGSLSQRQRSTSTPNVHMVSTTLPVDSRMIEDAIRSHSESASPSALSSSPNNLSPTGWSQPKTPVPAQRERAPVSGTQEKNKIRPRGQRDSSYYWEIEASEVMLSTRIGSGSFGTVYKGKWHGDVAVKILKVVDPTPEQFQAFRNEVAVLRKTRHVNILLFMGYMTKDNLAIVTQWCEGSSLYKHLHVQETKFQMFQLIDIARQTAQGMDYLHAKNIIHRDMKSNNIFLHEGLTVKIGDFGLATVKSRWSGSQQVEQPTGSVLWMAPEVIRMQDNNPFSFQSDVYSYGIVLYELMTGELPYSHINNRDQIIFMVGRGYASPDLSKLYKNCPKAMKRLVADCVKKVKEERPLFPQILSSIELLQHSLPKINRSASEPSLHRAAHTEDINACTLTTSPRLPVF
Experimental: as §1, §2

[7] = target: PKB (Homo sapiens, UniProt P31749); experiment: Kinase panel inhibition; details: @ 10 μM inhibitor; read-out: PKB kinase inh.
Chain of PKB (P31749 whole entry, species assumed): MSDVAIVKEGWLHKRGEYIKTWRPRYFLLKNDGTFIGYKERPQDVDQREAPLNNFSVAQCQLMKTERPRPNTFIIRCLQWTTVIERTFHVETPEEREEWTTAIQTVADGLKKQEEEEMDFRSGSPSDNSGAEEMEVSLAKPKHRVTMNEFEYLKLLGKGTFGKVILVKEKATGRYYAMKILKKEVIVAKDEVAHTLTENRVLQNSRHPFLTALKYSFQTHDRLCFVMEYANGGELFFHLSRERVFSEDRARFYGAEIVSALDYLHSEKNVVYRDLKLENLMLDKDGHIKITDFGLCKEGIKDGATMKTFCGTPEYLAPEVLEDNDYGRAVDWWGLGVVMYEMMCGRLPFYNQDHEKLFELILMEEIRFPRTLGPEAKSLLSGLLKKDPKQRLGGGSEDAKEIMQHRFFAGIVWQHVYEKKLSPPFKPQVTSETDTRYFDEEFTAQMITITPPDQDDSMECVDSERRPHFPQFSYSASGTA
Experimental: as §1, §2

[8] = target: KIT (Homo sapiens, UniProt P10721); experiment: Kinase panel inhibition; details: @ 10 μM inhibitor; read-out: KIT kinase inh.
Experimental: as §1, §2

[9] = target: HER1 (Homo sapiens, UniProt P00533); experiment: Kinase panel inhibition; details: @ 10 μM inhibitor; read-out: HER1 kinase inh.
Experimental: as §1, §2

[10] = target: ABL (Homo sapiens, UniProt P00519); experiment: Kinase panel inhibition; details: @ 10 μM inhibitor; read-out: ABL kinase inh.
Experimental: as §1, §2

[11] = tested on: FGFR; experiment: Kinase panel inhibition; details: @ 10 μM inhibitor
Experimental: as §1, §2

[12] = target: Tek (Homo sapiens, UniProt Q02763); experiment: Kinase panel inhibition; details: @ 10 μM inhibitor; read-out: Tek kinase inh.
Chain of Tek (Q02763 23-1124, species assumed): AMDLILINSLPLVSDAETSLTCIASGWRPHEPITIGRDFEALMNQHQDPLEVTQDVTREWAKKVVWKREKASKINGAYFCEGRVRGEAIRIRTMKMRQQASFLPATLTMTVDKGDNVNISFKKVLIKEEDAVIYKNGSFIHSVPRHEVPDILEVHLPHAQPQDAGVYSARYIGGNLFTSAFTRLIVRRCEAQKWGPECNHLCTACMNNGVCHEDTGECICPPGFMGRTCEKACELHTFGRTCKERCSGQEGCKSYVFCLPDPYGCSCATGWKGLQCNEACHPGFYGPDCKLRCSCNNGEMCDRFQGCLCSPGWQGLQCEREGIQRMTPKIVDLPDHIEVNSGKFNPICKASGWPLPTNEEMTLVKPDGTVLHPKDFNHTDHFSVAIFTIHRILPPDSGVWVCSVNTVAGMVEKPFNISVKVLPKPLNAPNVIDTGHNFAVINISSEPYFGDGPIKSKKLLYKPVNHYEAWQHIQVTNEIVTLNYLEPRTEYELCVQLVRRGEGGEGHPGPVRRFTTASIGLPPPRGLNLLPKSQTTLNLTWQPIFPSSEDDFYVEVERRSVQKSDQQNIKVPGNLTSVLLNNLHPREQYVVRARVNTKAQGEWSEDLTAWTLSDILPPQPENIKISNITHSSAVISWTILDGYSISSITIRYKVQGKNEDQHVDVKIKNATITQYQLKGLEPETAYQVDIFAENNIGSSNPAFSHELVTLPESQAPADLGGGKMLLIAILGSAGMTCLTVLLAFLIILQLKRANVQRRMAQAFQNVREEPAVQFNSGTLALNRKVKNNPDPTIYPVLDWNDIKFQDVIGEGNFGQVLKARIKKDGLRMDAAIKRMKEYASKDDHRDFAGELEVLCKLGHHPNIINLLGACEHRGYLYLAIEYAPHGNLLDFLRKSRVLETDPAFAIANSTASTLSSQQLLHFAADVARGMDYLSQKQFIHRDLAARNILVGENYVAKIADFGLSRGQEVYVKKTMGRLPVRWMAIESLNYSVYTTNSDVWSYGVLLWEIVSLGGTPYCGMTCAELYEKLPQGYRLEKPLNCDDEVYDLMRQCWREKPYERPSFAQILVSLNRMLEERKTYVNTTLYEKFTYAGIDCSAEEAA
Experimental: as §1, §2

[13] = target: MET (Homo sapiens, UniProt P08581); experiment: Kinase panel inhibition; details: @ 10 μM inhibitor; read-out: MET kinase inh.
Experimental: as §1, §2

[14] = target: IGF (Homo sapiens, UniProt P08069); experiment: Kinase panel inhibition; details: @ 10 μM inhibitor; read-out: IGF kinase inh.
Chain of IGF (P08069 31-1367): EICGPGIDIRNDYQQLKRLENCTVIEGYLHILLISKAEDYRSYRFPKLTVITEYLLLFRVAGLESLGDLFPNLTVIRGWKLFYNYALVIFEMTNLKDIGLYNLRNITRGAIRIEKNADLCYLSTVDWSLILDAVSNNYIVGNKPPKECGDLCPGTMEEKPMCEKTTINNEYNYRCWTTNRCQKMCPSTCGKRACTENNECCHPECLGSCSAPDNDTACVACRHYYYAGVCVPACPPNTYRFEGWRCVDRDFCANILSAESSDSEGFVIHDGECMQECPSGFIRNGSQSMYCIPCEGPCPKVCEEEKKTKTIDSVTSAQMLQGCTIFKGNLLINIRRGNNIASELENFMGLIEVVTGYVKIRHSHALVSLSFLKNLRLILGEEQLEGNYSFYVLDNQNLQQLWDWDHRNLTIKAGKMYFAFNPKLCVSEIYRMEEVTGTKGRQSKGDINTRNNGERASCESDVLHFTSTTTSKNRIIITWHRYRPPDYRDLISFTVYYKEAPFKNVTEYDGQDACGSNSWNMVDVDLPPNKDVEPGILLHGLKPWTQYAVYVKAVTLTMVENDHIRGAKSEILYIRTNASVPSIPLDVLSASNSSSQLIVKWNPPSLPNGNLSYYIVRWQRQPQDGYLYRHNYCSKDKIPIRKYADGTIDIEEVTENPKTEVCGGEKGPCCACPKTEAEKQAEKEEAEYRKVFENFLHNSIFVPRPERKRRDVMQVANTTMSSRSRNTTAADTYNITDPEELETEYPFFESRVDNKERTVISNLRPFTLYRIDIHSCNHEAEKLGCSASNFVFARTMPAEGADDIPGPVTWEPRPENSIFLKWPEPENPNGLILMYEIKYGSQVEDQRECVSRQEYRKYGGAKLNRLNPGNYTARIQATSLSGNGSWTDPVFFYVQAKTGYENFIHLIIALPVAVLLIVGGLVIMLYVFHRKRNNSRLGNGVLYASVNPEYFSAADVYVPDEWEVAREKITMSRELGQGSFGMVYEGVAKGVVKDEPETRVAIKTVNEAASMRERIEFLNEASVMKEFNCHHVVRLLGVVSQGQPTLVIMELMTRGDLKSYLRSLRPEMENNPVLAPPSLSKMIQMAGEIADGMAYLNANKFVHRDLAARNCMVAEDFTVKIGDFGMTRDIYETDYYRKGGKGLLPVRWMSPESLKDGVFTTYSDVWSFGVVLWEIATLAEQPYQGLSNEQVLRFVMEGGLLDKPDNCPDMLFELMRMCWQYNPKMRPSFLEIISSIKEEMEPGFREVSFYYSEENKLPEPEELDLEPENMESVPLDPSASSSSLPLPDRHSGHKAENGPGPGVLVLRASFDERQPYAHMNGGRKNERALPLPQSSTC
Experimental: as §1, §2

[15] = target: T2, human topoisomerase II α (Homo sapiens, UniProt P11388); experiment: Topoisomerase II ATPase assay (Malachite Green); details: for inhibition at 10 µM: Percent inhibition @10 μM, Malachite Green assay, read-out: TOPO II inh. (inhibition of the TOPO ATPase activity)
T2 construct: purchased Professor Neil Osheroff (Vanderbilt University, Nashville, Tenn., USA)
Experimental: The inhibition of topoisomerase II is measured as follows:
Purified human topoisomerase II α was purchased from Professor Neil Osheroff (Vanderbilt University—Nashville, Tenn., USA).
The pUC18 (Stratagene) plasmid was introduced into Escherichia coil XL-1 (Stratagene) and purified with the HiSpeed Plasmid Purification kit (Qiagen) according to the manufacturer instructions. The purity of the DNA preparations was evaluated spectrophotometrically (OD260/OD280 ratio) and by agarose gel.
Preparation of the Malachite Green Reagent:
Three volumes of 0.045% malachite green (Sigma, catalog no. M-9636) diluted in water are mixed for 20 min at room temperature with one volume of 4.2% ammonium molybdate (Axon Lab AG, catalog no. A-2246) diluted in 4 N HCl. After mixing, Triton X-100 (Merck, catalog no. 1.12298) is added to a final concentration of 0.01%. The solution is filtered at 0.2 μm and stored at room temperature in the dark.
ATP hydrolysis was monitored by measuring the production of inorganic phosphate released during the catalytic cycle of topoisomerase II α with acidic molybdate and malachite green (Lanzetta,et al., An improved assay for nanomole amounts of inorganic phosphate, Anal Biochem 1979;100:95-7). Briefly, human topoisomerase II α is pre-incubated at 37° C. for 10 min in 90 μl reaction buffer (10 mM Tris.HCl pH 7.9, 175 mM KCl, 1 mM EDTA, 2 mM DTT, 5 mM MgCl2, 2.5% glycerol) in the presence of the indicated amount of pUC18 and DMSO in F96 maxisorp Nunclmmuno plates (Nunc). The reaction is initiated by the addition of 10 μl ATP at the indicated concentrations and is carried out for 30 min at 37° C. under constant agitation. The reaction is stopped by the addition of 200 μl molybdate/malachite green solution and the absorbance is immediately measured at 630 nm. The OD630 value is measured in the absence of protein for each ATP concentration (background) is subtracted from the value obtained in the presence of enzyme. A standard curve with inorganic phosphate is used to determine the amount of inorganic phosphate produced during the reaction and to ensure that the measures are in the linear range of the assay. The kinetic parameters of the enzymes are determined from measurements (at least in duplicate) of the initial rates at different ATP concentrations. The data are analyzed with GraFit (Erithacus Software).
The compounds are tested at 10 μM of concentration to determine their inhibition potential given % of inhibition of the TOPO II ATPase activity.
For the determination of the IC50, the procedure is repeated for different concentrations of test compound selected to cover the range of 0% to 100% inhibition and the concentration at which 50% inhibition of topoisomerase II occurs (IC50) for each compound is determined from concentration-inhibition curves in a conventional manner.

[16] = tested on: PKA; experiment: Kinase panel inhibition; details: @ 10 μM inhibitor
Experimental: as §1, §2

| SMILES | inhibition at 10 µM [1] | inhibition at 10 µM [2] | inhibition at 10 µM [3] | inhibition at 10 µM [4] | inhibition at 10 µM [5] | inhibition at 10 µM [6] | inhibition at 10 µM [7] | inhibition at 10 µM [8] | inhibition at 10 µM [9] | inhibition at 10 µM [10] | FGFR kinase inh. [11] | inhibition at 10 µM [12] | inhibition at 10 µM [13] | inhibition at 10 µM [14] | IC50 [15] | inhibition at 10 µM [15] | PKA kinase inh. [16] |
| --- | --- | --- | --- | --- | --- | --- | --- | --- | --- | --- | --- | --- | --- | --- | --- | --- | --- |
| CC(C)(C)Nc1nc(Nc2ccc3ncsc3c2)nc2[nH]cnc12 [Example 14, N*2*-Benzothiazol-6-yl-N*6*-tert-butyl-9H-purine-2,6-diamine] | 65 to 80% | ≥ 80% | 65 to 80% | ≥ 80% | ≥ 80% | 65 to 80% | 50 to 65% | ≥ 80% | 65 to 80% | ≥ 80% | ++ (<80% ≧ 65%) | ≥ 80% | ≥ 80% | ≥ 80% |  |  |  |
| CCc1nc2c(NC(C)(C)C)nc(Nc3ccc4ncsc4c3)nc2[nH]1 [Example 27, N*2*-Benzothiazol-6-yl-N*6*-tert-butyl-8-ethyl-9H-purine-2,6-diamine] | < 50% | < 50% | < 50% | < 50% | 50 to 65% | < 50% | < 50% | < 50% | < 50% | 50 to 65% |  | 65 to 80% | < 50% | < 50% | 600 nM | ≥ 80% |  |
| Cc1nc2c(NC(C)(C)C)nc(Nc3ccc4ncsc4c3)nc2[nH]1 [Example 25, N*2*-Benzothiazol-6-yl-N*6*-tert-butyl-8-methyl-9H-purine-2,6-diamine] | < 50% | < 50% | < 50% | < 50% | 50 to 65% | < 50% | < 50% | < 50% | < 50% | 65 to 80% |  | < 50% | < 50% | < 50% | 2100 nM | 65 to 80% | + (<65% ≧ 50%) |
| Cc1ccc2cc(Nc3nc(NC(C)(C)C)c4nc[nH]c4n3)ccc2n1 [Example 16, N*6*-tert-Butyl-N*2*-(2-methyl-quinolin-6-yl)-9H-purine-2,6-diamine] |  |  |  |  |  |  |  |  |  |  |  |  |  |  |  | 50 to 65% |  |
| CC(C)(C)Nc1nc(Nc2ccc3[nH]ccc3c2)nc2[nH]cnc12 [Example 24, N*6*-tert-Butyl-N*2*-(1H-indol-5-yl)-9H-purine-2,6-diamine] |  |  |  |  |  |  |  |  |  |  |  |  |  |  |  | < 50% |  |
| c1csc(-c2ccc(Nc3nc(NC4CCCCCC4)c4nc[nH]c4n3)cc2)n1 [Example 2, N*6*-Cycloheptyl-N*2*-(4-thiazol-2-yl-phenyl)-9H-purine-2,6-diamine] |  |  |  |  |  |  |  |  |  |  |  |  |  |  |  | < 50% |  |
